Source: patent US20240166612A1, “ARYLTHIOETHER ACETAMIDE AND RELATED COMPOUNDS AND THEIR USE IN TREATING MEDICAL CONDITIONS” (X-Biotix Therapeutics, Inc., priority 2021, published 2024)
≈ marks a conversion by molar mass, not a printed value. Blank lines part the entries; values can stand above or below the compound they belong to.

Assays:
Type in all cases: cell-based
[1] = tested on: Wild-type P. aeruginosa PAO1; test: Broth microdilution MIC, wild-type P. aeruginosa PAO1; settings: Pseudomonas aeruginosa; wild-type P. aeruginosa PAO1, 37° C., 18 h; read-out: PAO1 WT MIC
Procedure: (§1) Exemplary compounds from the above Examples were tested to determine their minimum inhibitory concentration (MIC) for exemplary strains of Escherichia and Pseudomonas bacteria using broth microdilution methods. Assay procedures and results are described below.
(§2) Broth microdilution assays were conducted according to Clinical and Laboratory Standards Institute guidelines (CLSI, M07-A^11: Clinical and Laboratory Standards Institute. Methods for Dilution Antimicrobial Susceptibility Tests for Bacteria that Grow Aerobically; Approved Standard-11th Edition. Wayne, PA: CLSI, 2018). Briefly, bacterial suspensions were adjusted to a density equivalent to a 0.5 McFarland standard and diluted in sterile, cation-adjusted Mueller-Hinton broth (Beckton Dickinson) to yield a final inoculum between 2×10^5 and 8×10^5 colony-forming units (CFU)/mL. An inoculum volume of 98 μL was added to wells containing 2 μL of 2-fold serial dilutions of drug (prepared in DMSO). All inoculated microdilution trays were incubated in ambient air at 37° C. for 18 h. […] Performance of the assay was monitored by the use of laboratory quality-control strains (S. aureus ATCC 29213 and P. aeruginosa ATCC 27853) and levofloxacin, a compound with a defined MIC spectrum, in accordance with CLSI guidelines (CLSI, M100Ed29: Clinical and Laboratory Standards Institute. Performance Standards for Antimicrobial Susceptibility Testing, 29th Edition. Wayne, PA: CLSI, 2018).
(§3) Multiple enterobacteriaceae strains were tested, including both wild-type strains and multi-drug resistance pump deficient mutants. Specific strains tested included the following: • Wild-type P. aeruginosa PAO1, • P. aeruginosa PAO1 ΔmexABoprM—Disabled multi-drug efflux system Δ(MexAB-OprM), • P. aeruginosa PAO397—PAO1Δ(mexAB-oprM) Δ(mexCD-oprJ) Δ(mexEF-oprN) Δ(mexJK) Δ(mexXY) ΔopmH, • P. aeruginosa LESB58—Clinical isolate; colistin-resistant, isolated in the United Kingdom in 1988 from a patient with cystic fibrosis • E. coli JW0452-3 (BW25113 JacrA::kan)—Disabled multi-drug efflux system (AcrAB-TolC).
(§4) Experimental results are provided in Table 11, which provides MIC values for wild-type P. aeruginosa PAO1 (“PAO1 WT MIC”), P. aeruginosa PAO ΔmexABoprM (“PAO1 KO MIC”), P. aeruginosa PAO397 (“PAO397 KO MIC”), P. aeruginosa LESB58 (“LESB58”), and E. coli JW0452-3 (BW25113 JacrA::kan) (“E. coli KO MIC”).

P. aeruginosa LESB58 = test: Broth microdilution MIC, P. aeruginosa LESB58; settings: Pseudomonas aeruginosa; P. aeruginosa LESB58 clinical isolate, colistin-resistant, 37° C., 18 h
Procedure: as §1, §2, §3, §4

P. aeruginosa PAO397 = test: Broth microdilution MIC, P. aeruginosa PAO397; settings: Pseudomonas aeruginosa, PAO397, 18 h, read-out: PAO397 KO MIC
Procedure: as §1, §2, §3, §4

SMILES: CCc1c(F)cc(F)cc1OC(C)C(=O)N(Cc1nnc(N)o1)Cc1ccc(C#N)cc1F (single isomer, unassigned) [Compound No. 100]
MIC [1]: 1 to 16 µg/mL (≈ 2.18 to 34.8 µM) | MIC (P. aeruginosa LESB58): 1 to 16 µg/mL (≈ 2.18 to 34.8 µM)

SMILES: N#Cc1ccc(CN(CC(=O)NC2COC2)C(=O)CSc2ccccc2Cl)cc1 [Compound No. 1, 2-[[2-(2-Chlorophenyl)sulfanylacetyl]-[(4-cyanophenyl)methyl]amino]-N-(oxetan-3-yl)acetamide]
MIC (P. aeruginosa PAO397): 1 to 16 µg/mL (≈ 2.33 to 37.2 µM)

SMILES: N#Cc1ccc(CN(CC(=O)NC2CCNCC2)C(=O)CSc2ccccc2Cl)cc1 [compound 4]
MIC [1]: > 64 µg/mL | MIC (P. aeruginosa PAO397): 16 to 64 µg/mL (≈ 35 to 140 µM)

SMILES: N#Cc1ccc(CN(Cc2nnc(N)o2)C(=O)COc2ccccc2Cl)cn1 [compound 17]
MIC [1]: > 64 µg/mL | MIC (P. aeruginosa PAO397): 1 to 16 µg/mL (≈ 2.51 to 40.1 µM)

SMILES: N#Cc1ccc(CN(C(=O)CSc2ccccc2Cl)C2(c3nnc(N)o3)CC2)cc1 [compound 22]
MIC [1]: > 64 µg/mL | MIC (P. aeruginosa PAO397): 1 to 16 µg/mL (≈ 2.27 to 36.4 µM)

SMILES: CC(C)c1ccccc1OCC(=O)N(Cc1ccc(C#N)cc1)Cc1nnc(N)o1 [compound 53]
MIC [1]: > 64 µg/mL | MIC (P. aeruginosa PAO397): 1 to 16 µg/mL (≈ 2.47 to 39.5 µM)

SMILES: Cc1ncc(CN(Cc2ccc(C#N)cc2)C(=O)CSc2ccccc2Cl)[nH]1 [compound 75]
MIC [1]: > 64 µg/mL | MIC (P. aeruginosa PAO397): 1 to 16 µg/mL (≈ 2.43 to 38.9 µM)

SMILES: [2H]C([2H])(Oc1cc(F)cc(F)c1C([2H])([2H])C([2H])([2H])[2H])C(=O)N(Cc1nnc(N)o1)Cc1ccc(C#N)cc1F [compound 77, N-[(5-amino-1,3,4-oxadiazol-2-yl)methyl]-N-[(4-cyano-2-fluoro-phenyl)methyl]-2,2-dideuterio-2-[3,5-difluoro-2-(1,1,2,2,2-pentadeuterioethyl)phenoxy]acetamide]
MIC [1]: 1 to 16 µg/mL (≈ 2.21 to 35.4 µM) | MIC (P. aeruginosa LESB58): 1 to 16 µg/mL (≈ 2.21 to 35.4 µM)

SMILES: CCc1c(F)cc(F)cc1OCC(=O)N(Cc1nnc(N)o1)Cc1ccc(S(N)(=O)=O)cc1F [compound 79, N-[(5-Amino-1,3,4-oxadiazol-2-yl)methyl]-2-(2-ethyl-3,5-difluoro-phenoxy)-N-[(2-fluoro-4-sulfamoyl-phenyl)methyl]acetamide]
MIC [1]: 1 to 16 µg/mL (≈ 2 to 32 µM) | MIC (P. aeruginosa LESB58): 1 to 16 µg/mL (≈ 2 to 32 µM)

SMILES: Nc1nnc(CN(Cc2ccc(S(N)(=O)=O)cc2F)C(=O)COc2cc(F)cc(F)c2C2CC2)o1 [compound 80]
MIC [1]: 16 to 64 µg/mL (≈ 31.3 to 125 µM) | MIC (P. aeruginosa LESB58): 1 to 16 µg/mL (≈ 1.96 to 31.3 µM)

SMILES: N#Cc1ccc(CN(Cc2nnc(N)o2)C(=O)COc2cc(F)cc(F)c2C2CC2)c(F)c1 [compound 81]
MIC [1]: 16 to 64 µg/mL (≈ 35 to 140 µM) | MIC (P. aeruginosa LESB58): 1 to 16 µg/mL (≈ 2.19 to 35 µM)

SMILES: [2H]C([2H])(Oc1cc(F)cc(F)c1C([2H])([2H])C([2H])([2H])[2H])C(=O)N(Cc1ccc(C#N)nc1)Cc1nnc(N)o1 [compound 82]
MIC [1]: > 64 µg/mL | MIC (P. aeruginosa LESB58): 16 to 64 µg/mL (≈ 36.7 to 147 µM)

SMILES: N#Cc1ccc(CN(Cc2nnc(N)o2)C(=O)COc2cc(F)cc(F)c2C2CC2)cn1 [compound 85]
MIC [1]: > 64 µg/mL | MIC (P. aeruginosa LESB58): 16 to 64 µg/mL (≈ 36.3 to 145 µM)

MIC [1]: > 64 µg/mL
SMILES: CNC(=O)CN(Cc1ccc(-n2cncn2)cc1)C(=O)CSc1ccccc1Cl [compound 91]

SMILES: C[C@@H](Sc1cc(F)cc(F)c1Cl)C(=O)N(Cc1nnc(N)o1)Cc1ccc(C#N)cc1F [compound 98]
MIC [1]: > 64 µg/mL | MIC (P. aeruginosa LESB58): > 64 µg/mL

SMILES: N#Cc1ccc(CN(Cc2nnc(N)o2)C(=O)/C=C/c2ccccc2Cl)c(F)c1 [compound 99]
MIC [1]: > 64 µg/mL | MIC (P. aeruginosa LESB58): > 64 µg/mL

SMILES: CCc1c(F)cc(F)cc1O[C@@H](C)C(=O)N(Cc1nnc(N)o1)Cc1ccc(C#N)cc1F [compound 101]
MIC [1]: > 64 µg/mL | MIC (P. aeruginosa LESB58): > 64 µg/mL

SMILES: C[C@H](Sc1cc(F)cc(F)c1Cl)C(=O)N(Cc1nnc(N)o1)Cc1ccc(C#N)cc1F [compound 103]
MIC [1]: > 64 µg/mL | MIC (P. aeruginosa LESB58): > 64 µg/mL

SMILES: [2H]C([2H])(Oc1cc(F)cc(F)c1C([2H])([2H])C([2H])([2H])[2H])C(=O)N(Cc1nnc(N)o1)Cc1ccc(S(N)(=O)=O)cc1F [compound 111, N-[(5-Amino-1,3,4-oxadiazol-2-yl)methyl]-2,2-dideuterio-2-[3,5-difluoro-2-(1,1,2,2,2-pentadeuterioethyl)phenoxy]-N-[(2-fluoro-4-sulfamoyl-phenyl)methyl]acetamide]
MIC [1]: 16 to 64 µg/mL (≈ 31.6 to 126 µM) | MIC (P. aeruginosa LESB58): 1 to 16 µg/mL (≈ 1.97 to 31.6 µM)

MIC [1]: > 64 µg/mL
SMILES: N#Cc1ccc(CN(Cc2nnc(N)o2)C(=O)CSc2cc(CN)ccc2Cl)cn1 [compound 115]
